# Source: ChEMBL document CHEMBL2040547, “Synthesis of natural flutimide and analogous fully substituted pyrazine-2,6-diones, endonuclease inhibitors of influenza virus” (J Org Chem, 2001)
# Biological target: Polymerase acidic protein (Influenza A virus (A/Puerto Rico/8/1934(H1N1)), UniProt P03433)
# Assay: Inhibition of cap 1 ALMV primed Influenza transcriptase
row,Structure (SMILES),IC50
1,CC(C)CC1=N/C(=C\c2ccc(F)cc2)C(=O)NC1=O,> 200 µM
2,CC(C)/C=C1\N=C(CC(C)C)C(=O)N(O)C1=O,5.1 µM
3,COCON1C(=O)C(CC(C)C)=N/C(=C\C(C)C)C1=O,> 200 µM
4,COCON1C(=O)[C@H]([C@H](O)C(C)C)N(Cc2ccccc2)[C@@H](CC(C)C)C1=O,> 200 µM
5,COCON1C(=O)[C@H]([C@H](O)C(C)C)N(Cc2ccccc2)[C@@H](Cc2ccccc2)C1=O,> 200 µM
6,COCON1C(=O)[C@H]([C@@H](O)C(C)C)N(Cc2ccccc2)[C@@H](Cc2ccccc2)C1=O,> 200 µM
7,COCON1C(=O)/C(=C/c2ccccc2F)N(Cc2ccccc2)[C@@H](CC(C)C)C1=O,> 200 µM
8,COCON1C(=O)/C(=C\C(C)C)N(Cc2ccccc2)[C@@H](CC(C)C)C1=O,> 200 µM
9,COCON1C(=O)/C(=C\C(C)C)N(Cc2ccccc2)[C@@H](Cc2ccccc2)C1=O,> 200 µM
10,COCON1C(=O)C(CC(C)C)=N/C(=C\c2ccccc2)C1=O,> 200 µM
11,COCON1C(=O)C(CC(C)C)=N/C(=C\c2ccc(OC)cc2)C1=O,> 200 µM
12,COCON1C(=O)C(CC(C)C)=N/C(=C\c2ccc(F)cc2)C1=O,> 200 µM
13,COCON1C(=O)C(CC(C)C)=N/C(=C\c2cccc(F)c2)C1=O,> 200 µM
14,COCON1C(=O)C(CC(C)C)=N/C(=C\c2ccccc2F)C1=O,> 200 µM
15,COCON1C(=O)C(Cc2ccccc2)=N/C(=C\C(C)C)C1=O,> 200 µM
16,COCON1C(=O)C(Cc2ccccc2)=N/C(=C\c2ccc(OC)cc2)C1=O,> 200 µM
17,COCON1C(=O)C(Cc2ccccc2)=N/C(=C\c2ccc(F)cc2)C1=O,> 200 µM
18,O=C1C(Cc2ccccc2)NC(Cc2ccc(F)cc2)C(=O)N1O (stereo not drawn),85 µM
